Where two headings read alike, the source gives them in different places. One block for each molecule: values may come before it.
Legend:
[1] = molecular target: LRRK2; design: method as in PMID 31365783, PMID 36256881, PMID 33582389, PMID 33248850; details: saturation assays; cited from earlier work
[2] = system: LRRK2 WT; details: cited from earlier work
[3] = system: LRRK2 G2019S; details: cited from earlier work
[4] = system: LRRK2; details: read-out: WCA IC50, cited from earlier work
[5] = human liver microsomal clearance; cited from earlier work
[6] = system: THLE cells; details: THLE cell viability; cited from earlier work
[7] = system: MDR1; details: cited from earlier work
[8] = cited from earlier work; for RRCK Papp AB: molecular formula strings file
[9] = molecular target: T1, LRRK2 (Rattus norvegicus, UniProt F1LNJ1); test: In vitro autoradiography in rat brain sections; assay type: binding; details: blocking with 3 (10 μM)
T1 construct: from tissue; host or cells: rat brain (Sprague-Dawley rats)
T1 sequence (F1LNJ1 1-2526): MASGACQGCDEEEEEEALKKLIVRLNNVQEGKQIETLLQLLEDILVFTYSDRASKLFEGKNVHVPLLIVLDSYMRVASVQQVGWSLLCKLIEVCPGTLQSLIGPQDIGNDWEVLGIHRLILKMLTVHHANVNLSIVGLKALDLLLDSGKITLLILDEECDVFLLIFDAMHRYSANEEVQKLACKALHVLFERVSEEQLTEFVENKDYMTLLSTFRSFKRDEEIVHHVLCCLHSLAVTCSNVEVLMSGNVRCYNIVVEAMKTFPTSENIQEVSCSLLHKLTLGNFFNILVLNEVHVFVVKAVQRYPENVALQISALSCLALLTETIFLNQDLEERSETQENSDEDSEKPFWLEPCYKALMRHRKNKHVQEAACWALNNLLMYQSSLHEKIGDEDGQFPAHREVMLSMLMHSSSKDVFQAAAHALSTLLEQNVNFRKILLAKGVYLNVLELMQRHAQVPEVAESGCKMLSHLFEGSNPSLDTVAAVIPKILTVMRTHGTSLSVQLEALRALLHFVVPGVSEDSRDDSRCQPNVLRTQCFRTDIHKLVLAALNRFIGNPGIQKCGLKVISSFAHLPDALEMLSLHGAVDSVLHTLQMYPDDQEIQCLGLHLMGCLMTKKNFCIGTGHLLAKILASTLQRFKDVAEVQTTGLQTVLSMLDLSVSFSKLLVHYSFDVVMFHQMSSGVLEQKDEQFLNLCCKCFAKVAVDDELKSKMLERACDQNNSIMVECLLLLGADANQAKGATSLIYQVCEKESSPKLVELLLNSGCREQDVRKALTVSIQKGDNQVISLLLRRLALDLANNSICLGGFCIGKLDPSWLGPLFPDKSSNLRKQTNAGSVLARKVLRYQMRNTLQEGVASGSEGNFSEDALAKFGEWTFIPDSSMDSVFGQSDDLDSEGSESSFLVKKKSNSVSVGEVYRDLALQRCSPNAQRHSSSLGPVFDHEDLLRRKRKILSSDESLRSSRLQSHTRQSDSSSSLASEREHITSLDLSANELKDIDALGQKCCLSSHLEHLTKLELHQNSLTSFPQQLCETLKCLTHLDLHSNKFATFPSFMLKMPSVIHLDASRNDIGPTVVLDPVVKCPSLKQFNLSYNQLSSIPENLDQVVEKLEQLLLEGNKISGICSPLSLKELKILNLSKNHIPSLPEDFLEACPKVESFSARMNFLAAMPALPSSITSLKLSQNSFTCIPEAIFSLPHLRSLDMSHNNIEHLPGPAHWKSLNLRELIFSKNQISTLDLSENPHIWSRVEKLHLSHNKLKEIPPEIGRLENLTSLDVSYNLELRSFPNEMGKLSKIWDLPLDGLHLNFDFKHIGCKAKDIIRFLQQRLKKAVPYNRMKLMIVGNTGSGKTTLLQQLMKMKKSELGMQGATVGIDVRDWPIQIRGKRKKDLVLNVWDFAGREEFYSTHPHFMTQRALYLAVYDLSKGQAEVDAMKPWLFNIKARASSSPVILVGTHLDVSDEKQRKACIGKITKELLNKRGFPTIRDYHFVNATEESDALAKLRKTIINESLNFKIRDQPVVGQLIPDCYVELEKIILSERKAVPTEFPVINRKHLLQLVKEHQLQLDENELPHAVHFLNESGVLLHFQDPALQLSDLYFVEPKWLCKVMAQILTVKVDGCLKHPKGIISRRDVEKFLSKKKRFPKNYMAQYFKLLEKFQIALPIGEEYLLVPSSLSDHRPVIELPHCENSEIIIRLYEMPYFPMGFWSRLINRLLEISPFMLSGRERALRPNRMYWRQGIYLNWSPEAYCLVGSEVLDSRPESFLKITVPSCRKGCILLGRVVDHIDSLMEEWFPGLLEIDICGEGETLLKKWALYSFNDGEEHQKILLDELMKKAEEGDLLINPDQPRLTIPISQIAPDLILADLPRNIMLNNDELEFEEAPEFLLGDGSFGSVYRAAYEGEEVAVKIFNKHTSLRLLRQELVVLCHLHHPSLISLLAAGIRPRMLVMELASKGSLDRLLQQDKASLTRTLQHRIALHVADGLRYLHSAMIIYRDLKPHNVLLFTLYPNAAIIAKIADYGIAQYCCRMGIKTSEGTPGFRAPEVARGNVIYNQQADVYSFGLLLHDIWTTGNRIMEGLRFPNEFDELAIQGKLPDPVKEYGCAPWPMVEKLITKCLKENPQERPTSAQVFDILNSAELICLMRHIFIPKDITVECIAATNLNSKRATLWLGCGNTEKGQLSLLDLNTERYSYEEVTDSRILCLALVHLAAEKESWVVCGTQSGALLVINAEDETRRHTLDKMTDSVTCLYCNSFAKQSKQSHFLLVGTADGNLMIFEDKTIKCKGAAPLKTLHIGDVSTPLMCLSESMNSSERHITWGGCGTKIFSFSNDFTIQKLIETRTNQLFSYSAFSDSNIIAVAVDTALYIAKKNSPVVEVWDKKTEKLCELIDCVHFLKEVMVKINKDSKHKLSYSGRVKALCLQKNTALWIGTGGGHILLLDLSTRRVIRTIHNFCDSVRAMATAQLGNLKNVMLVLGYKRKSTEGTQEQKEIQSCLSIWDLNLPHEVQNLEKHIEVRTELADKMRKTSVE
Description: The general procedure for autoradiography studies was described previously with minor revision in this work.[36],[40] Brain sections from rats were preincubated with Tris-HCl buffer (50 mM), MgCl2 (1.2 mM) and CaCl2 (2 mM) solution for 20 min at ambient temperature, followed by incubation with [^11C]3 and [^18F]4 (0.48 nM). […] After incubation, brain sections were rinsed with ice-cold buffer 3 times for 2 min and dipped in cold distilled water for 10 s. The brain sections were dried with cold air and then placed on imaging plates (BAS-MS2025, GE Healthcare, NJ) for optimized contact periods. Autoradiograms were obtained and regions of interest (ROIs) were carefully drawn with the reference of naked-eye observation. Radioactivity was measured using an Amersham Typhoon 5 analyzer system and expressed as photostimulated luminescence values per unit area (PSL/mm^2) or normalized to % of radioactivity vs control.

[10] = design: method as in earlier work; details: molecular formula strings file; cited from earlier work

SMILES: [18F]c1ccc(-c2c[nH]c3ncnc(N4CCOCC4)c23)cn1 [compound 2]
Kd [1]: 0.0143 µM

SMILES: N#Cc1cccc(-c2c[nH]c3ncnc(N4CCOCC4)c23)c1 [compound 3, 3-(4-morpholino-7H-pyrrolo[2,3-d]pyrimidin-5-yl)benzonitrile]
IC50 ([2]; biochemical LRRK2 assay, n ≥ 2): 0.003 µM
IC50 ([3]; biochemical LRRK2 assay, n ≥ 2): 0.014 µM
IC50 ([4]; Table S1): 0.025 µM
HLM CL [5]: 36 mL/min/kg
IC50 [6]: > 223 µM
MDR1 BA/AB ([7]; MDR1 efflux ratio): 1.08
MDR1 BA/AB ([7]; Table S1): 1.0
RRCK PappAB ([8]; Table S1, unit assumed): 27 10^-6 cm/s
RRCK Papp AB [8]: 26.68
RRCK PappAB ([8]; passive permeability): 26.68 1 × 10^–6 cm/s

SMILES: CC(C)(C)Cn1ccc2c(N3CCOCC3)nc(-c3ccc(NC(=O)c4ccc([18F])nc4)cc3)nc21 [FMN3PA]
Kd [1]: 0.02 µM

SMILES: CN(C)c1ncnc2[nH]cc(-c3ccc([18F])nc3)c12 [compound 1]
Kd [1]: 0.0067 µM

reduction of radioactive uptake under self-blocking ([9]; cerebellum): 83%
reduction of radioactive uptake under self-blocking ([9]; cerebral cortex): 87%
reduction of radioactive uptake under self-blocking ([9]; hippocampus): 87%
reduction of radioactive uptake under self-blocking ([9]; pons): 64%
reduction of radioactive uptake under self-blocking ([9]; striatum): 85%
reduction of radioactive uptake under self-blocking ([9]; thalamus): 83%
SMILES: N#[11C]c1cccc(-c2c[nH]c3ncnc(N4CCOCC4)c23)c1 [[^11C]3]

SMILES: CNc1nc(Nc2ccc(C(=O)N3CCOCC3)cc2O[11CH3])ncc1C(F)(F)F [GNE-1023, reference compound]
IC50 ([2]; biochemical LRRK2 assay, n ≥ 2): 0.002 µM
MDR1 BA/AB ([7]; MDR1 efflux ratio): 1.2
RRCK PappAB ([8]; passive permeability): 18.2 1 × 10^–6 cm/s

SMILES: CC(C)(C)Cn1ccc2c(N3CCOCC3)nc(-c3ccc(NC(=O)Nc4ccc([18F])nc4)cc3)nc21 [FMN3PU]
Kd [1]: 0.0236 µM

SMILES: N#Cc1cccc(-c2c[nH]c3ncnc(N4CCOCC4)c23)c1F [compound 4]
IC50 ([2]; Table S1): 0.003 µM
IC50 ([2]; biochemical LRRK2 assay, n ≥ 2): 0.00358 µM
IC50 ([3]; Table S1): 0.009 µM
IC50 ([4]; whole cellular LRRK2 assay, n ≥ 2): 0.02 µM
HLM CL [5]: 31.4 mL/min/kg
IC50 [6]: 162 µM
MDR1 BA/AB ([7]; MDR1 efflux ratio): 1.10
RRCK PappAB ([8]; Table S1, unit assumed): 29.2 10^-6 cm/s
RRCK Papp AB [8]: 29.18
RRCK PappAB ([8]; passive permeability): 29.18 1 × 10^–6 cm/s
LogD [10]: 2.072
pKa [10]: 5.61

Reference: paper PMC10895652, “Preclinical Evaluation of Novel Positron Emission Tomography (PET) Probes for Imaging Leucine-Rich Repeat Kinase 2 (LRRK2)” (Journal of Medicinal Chemistry, 2024)
